Target: human αvβ3 receptor (Homo sapiens, UniProt P05106+P06756)
Test: Kistrin/Vitronectin Receptor (αvβ3) ELISA test
Format: binding
Settings: Kistrin-coated plates, 3 hours at ambient temperature, 4B12-HRP detection, read-out: K/VnR IC50
Protocol: Pharmacological Test: Kistrin/Vitronectin Receptor (αvβ3) ELISA Test Protocol:
96-well MaxiSorp plates are coated overnight at […] with 100 μl of Kistrin at 1 μg/ml (dilution in coating buffer: 0.05M carbonate)/NaOH pH 9.6. The next day, the wells are emptied and the ligands (kistrin) are then fixed (fixation buffers: PBS containing 0.5% BSA (pH=7.4)) for 1 hour at ambient temperature under gentle agitation of 125 rpm. The wells are washed six times (washing buffer: PBS containing 0.05% Tween 20 (pH 7.7) then the following is added per well and in this order:
40 μl of incubation buffer
10 μl of the dilution of the product to be tested (the products are diluted in a 50:50 DMSO/water mixture)
50 μl of human αvβ3 receptor (cf Pytel et al. Methods Enzymol. (1987) 144 (Dilution in incubation buffer, adapted according to the batch of receptor and according to the ligand). The ligand, the αvβ3 receptor and the products to be studied are incubated for 3 hours at ambient temperature with gentle agitation of 125 rpm.
The wells are again washed six times, then incubated for 2 hours at ambient temperature with mild agitation of 125 rpm, in the presence of 100 μl of anti-receptor antibody coupled to a peroxidase (The 4B12-HRP antibody is diluted in incubation buffer (50 mM TRIS pH 7.4; 0.5% BSA; 0.05% Tween 20; 1 mM MnCl2; 50 μM CaCl2; 50 μM MgCl2; 100 mM NaCl). The dilution is to be adapted according to the batch of receptor.
The wells are then washed six times before measurement of the ligand-receptor bond is carried out using a peroxidase developer kit (TBM Microwell Peroxidase Substrate System Kirkegaard; Ref cat 50-76-00).
This kit contains a flask A of substrate (3,3′,5,5′-tetramethylebenzidine at 0.4 g/l) and a flask B (H2O2 to 0.02% in Citrate/Citric acid). Extemporaneously, one volume of A is mixed with one volume of B, then the reaction mixture is distributed at a rate of 100 μl/wells.
The enzymatic reaction develops between 6 to 10 minutes for Kistrin/αvβ3 then its development is stopped by the addition of 100 μl of 1M phosphoric acid. The optical density is determined at 450 nm.
Expression of the Results
The following curve is plotted: the bond percentage as a function of the logarithm of each concentration of the tested product.
For each product IC50 is determined according to the following formula: IC50=(B0+Bmin)/2 B0=Maximum bond in the absence of any product Bmin=Minimum bond in the presence of the highest concentration of the product.

human αvβ3 receptor, sequence (P06756 31-889 limits assumed): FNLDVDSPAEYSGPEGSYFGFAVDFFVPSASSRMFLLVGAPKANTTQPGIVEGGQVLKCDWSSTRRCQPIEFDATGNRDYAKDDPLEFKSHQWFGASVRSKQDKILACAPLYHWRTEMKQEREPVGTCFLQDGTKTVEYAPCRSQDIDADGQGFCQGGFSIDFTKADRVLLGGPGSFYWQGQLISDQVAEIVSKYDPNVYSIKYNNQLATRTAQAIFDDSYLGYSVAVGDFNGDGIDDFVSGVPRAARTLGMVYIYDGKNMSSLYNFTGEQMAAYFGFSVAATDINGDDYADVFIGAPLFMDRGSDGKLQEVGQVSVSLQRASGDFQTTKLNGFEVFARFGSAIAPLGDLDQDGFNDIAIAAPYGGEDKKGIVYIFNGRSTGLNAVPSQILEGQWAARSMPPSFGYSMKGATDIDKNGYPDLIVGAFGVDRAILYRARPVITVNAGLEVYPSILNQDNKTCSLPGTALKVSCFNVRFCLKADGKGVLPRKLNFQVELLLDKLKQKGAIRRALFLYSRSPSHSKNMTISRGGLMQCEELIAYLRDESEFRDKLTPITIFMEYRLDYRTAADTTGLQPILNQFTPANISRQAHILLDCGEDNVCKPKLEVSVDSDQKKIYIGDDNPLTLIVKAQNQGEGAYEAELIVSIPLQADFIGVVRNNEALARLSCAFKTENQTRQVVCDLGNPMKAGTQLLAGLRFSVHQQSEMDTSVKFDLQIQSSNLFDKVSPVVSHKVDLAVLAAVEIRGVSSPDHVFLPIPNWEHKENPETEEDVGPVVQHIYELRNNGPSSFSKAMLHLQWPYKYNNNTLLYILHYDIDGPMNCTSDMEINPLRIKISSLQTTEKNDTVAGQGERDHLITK
human αvβ3 receptor, sequence (P06756 891-1048 limits assumed): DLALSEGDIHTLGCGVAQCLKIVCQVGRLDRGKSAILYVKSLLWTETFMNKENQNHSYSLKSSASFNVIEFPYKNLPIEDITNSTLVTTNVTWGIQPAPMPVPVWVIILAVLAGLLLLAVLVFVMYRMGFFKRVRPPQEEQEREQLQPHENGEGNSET
human αvβ3 receptor, sequence (P05106 27-788): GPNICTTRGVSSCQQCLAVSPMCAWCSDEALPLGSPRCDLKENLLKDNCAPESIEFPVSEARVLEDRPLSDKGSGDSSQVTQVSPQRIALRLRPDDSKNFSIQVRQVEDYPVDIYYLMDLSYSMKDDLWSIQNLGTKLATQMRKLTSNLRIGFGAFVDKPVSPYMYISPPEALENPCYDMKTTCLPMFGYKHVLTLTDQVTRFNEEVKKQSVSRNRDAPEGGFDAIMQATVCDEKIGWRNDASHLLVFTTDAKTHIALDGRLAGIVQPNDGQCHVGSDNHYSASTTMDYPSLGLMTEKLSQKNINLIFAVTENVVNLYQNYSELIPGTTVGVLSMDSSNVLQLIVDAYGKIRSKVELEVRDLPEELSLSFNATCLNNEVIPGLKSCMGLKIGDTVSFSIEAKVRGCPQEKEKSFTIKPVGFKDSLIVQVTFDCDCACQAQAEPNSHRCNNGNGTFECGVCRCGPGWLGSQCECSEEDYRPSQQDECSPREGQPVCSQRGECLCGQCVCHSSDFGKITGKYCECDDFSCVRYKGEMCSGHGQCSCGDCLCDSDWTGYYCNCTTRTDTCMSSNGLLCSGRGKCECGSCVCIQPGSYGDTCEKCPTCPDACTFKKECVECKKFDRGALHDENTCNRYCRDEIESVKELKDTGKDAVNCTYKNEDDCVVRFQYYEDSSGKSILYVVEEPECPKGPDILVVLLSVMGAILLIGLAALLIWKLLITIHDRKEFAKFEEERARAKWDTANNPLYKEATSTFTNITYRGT

Structure (SMILES) | IC50 [nM]
CC(CCc1ccc(OCCC(NC(=O)OCc2ccccc2)C(=O)O)cc1)=NNC1=NCCN1 (mixture of isomers) [ex 1, O-[4-[3-[(4,5-Dihydro-1H-imidazol-2-yl)hydrazono]butyl]-phenyl]-N-[(phenylmethoxy)carbonyl]-homoserine.] | 150
CC(CCc1ccc(OCCC(NC(=O)OCc2ccccc2)C(=O)O)cc1)=NNC(=N)N (mixture of isomers) [ex 2, O-[4-[3-[(Aminoiminomethyl)hydrazono]butyl]phenyl]-N-[(phenylmethoxy)carbonyl]-homoserine] | 1350
N=C(N)NN=CCCc1ccc(OCCC(NC(=O)OCc2ccccc2)C(=O)O)cc1 (mixture of isomers) [ex 4, O-[4-[3-[(Aminoiminomethyl)hydrazono]propyl]phenyl]-N-[(phenylmethoxy)carbonyl]-homoserine] | 450
CC(Cc1ccc(OCCC(NC(=O)OCc2ccccc2)C(=O)O)cc1)=NNC1=NCCN1 (mixture of isomers) [ex 5] | 22
CC(CCc1cccc(OCCC(NC(=O)OCc2ccccc2)C(=O)O)c1)=NNC1=NCCN1 (mixture of isomers) [ex 9, O-[3-[3-[(4,5-Dihydro-1H-imidazol-2-yl)hydrazono]butyl]-phenyl]-N-[(phenylmethoxy)carbonyl]-homoserine] | 2000
CC(Cc1cccc(OCCC(NC(=O)OCc2ccccc2)C(=O)O)c1)=NNC1=NCCN1 (mixture of isomers) [ex 10, O-[3-[2-[(4,5-Dihydro-1H-imidazol-2-yl) hydrazono]propyl]-phenyl]-N-[(phenylmethoxy)carbonyl]-homoserine] | 355
N=C(N)NN=CCCc1cccc(OCCC(NC(=O)OCc2ccccc2)C(=O)O)c1 (mixture of isomers) [ex 11, O-[3-[3-[(Aminoiminomethyl)hydrazono]propyl]phenyl]-N-[(phenylmethoxy)carbonyl]-homoserine] | 3250
O=C(NC(CCOc1ccc(CC/C=N\NC2=NCCN2)cc1)C(=O)O)OCc1ccccc1 (racemic) [ex 3, O-[4-[3-[(4,5-Dihydro-1H-imidazol-2-yl)hydrazono]propyl]-phenyl]-N-[(phenylmethoxy)carbonyl]-homoserine] | 110
COc1cc(C/C(C)=N/NC2=NCCN2)ccc1OCCC(NC(=O)OCc1ccccc1)C(=O)O (racemic) [ex 6, O-[4-[2-[(4,5-Dihydro-1H-imidazol-2-yl)hydrazono]propyl]-2-methoxyphenyl]-N-[(phenylmethoxy)carbonyl]-homoserine] | 12
C/C(Cc1ccc(OCCC(NC(=O)OCc2ccccc2)C(=O)O)c(F)c1)=N\NC1=NCCN1 (racemic) [ex 7, O-[4-[2-[(4,5-Dihydro-1H-imidazol-2-yl)hydrazono]propyl]-2-fluorophenyl]-N-[(phenylmethoxy)carbonyl]-homoserine] | 22
O=C(NC(CCOc1cccc(CC/C=N/NC2=NCCN2)c1)C(=O)O)OCc1ccccc1 (stereo not drawn) [ex 12, O-[3-[3-[(4,5-Dihydro-1H-imidazol-2-yl) hydrazono]propyl]-phenyl]-N-[(phenylmethoxy)carbonyl]-homoserine] | 960
O=C(NC(CCOc1ccc(/C=N/NC2=NCCN2)cc1)C(=O)O)OCc1ccccc1 (stereo not drawn) [ex 13] | 292
